We go through one molecule from patent US11541029B2, “High penetration compositions and their applications” (Techfields Pharma Co., Ltd., priority 2008, dated 2023).

One assay deals with normal SD rats (SLAC/SD). Kind of assay: Blood glucose in normal SD rats treated with HPCs of NSAIAs. Format: in vivo. The following applies: 30 mg/kg transdermally once per day, no fasting. In outline: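 GK (type 2 diabetic) and normal SD rats, 14-16 weeks old, n=7, received 30 mg/kg test compound in 25% ethanol transdermally on a 6 cm^2 shaved back area once daily at 8 am for 6 weeks. Non-fasting blood glucose was measured at 4:30 pm every 3 days from week 3 to week 6.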

The test system of assay [1] is fungal diseases and insects of grape vine. Kind of assay: Antiviral, anti-fungus, anti-insect activity in red grape vine. Format: in vivo. An excerpt:
2 Acres of grape vine was divided into 4 groups (½ acre each). All field operations concerning land preparation and the uses of fertilizers were same for all groups. Group A was control group treated with no chemicals. Group B was normal fungicides and insecticides-treated group. Group C was N,N-diethylaminoethyl acetylsalicylate treated group. Group D was N,N-diethylaminoethyl acetylsalicylate and N,N-diethylaminoethyl jasmonate.citric acid treated group. In group A, black rot, downy mildew, powdery mildew, anthracnose, Phomopsis Blight, and other fungal diseases were found and Grape Berry Moth, Grape Root Borer, Rose Chafer, Japanese beetle, grape tomato gall, and other diseases and insects were found. Yield nothing of good (edible) grapes. In group B, 200 g of Ferbam 76% WP in 100 kg of water was applied to the group B grape vines in November 15; 160 g of sulfur 95% WP and 600 g of hydrated lime in 100 kg of water was applied to the group B grape vines in December 15; 200 g of Daconil 2787 in 100 kg of water was applied to the group B grape vines in March 10; 250 g of Captan 50% WP and 200 g of dimethomorph 50% WP in 100 kg of water was applied to the group B grape vines in March 20; 30 g of (4″R)-4″-deoxy-4″-(methylamino)avermectin B1 benzoate [proclaim ? (banleptm)] […]

As for `CCN(CC)CCOC(=O)c1ccccc1OC(C)=O.Cl` [P-1, diethylaminoethyl acetylsalicylate.HCl salt], in the assay on normal SD rats (SLAC/SD), the “blood glucose, Average (Week 2-5)” value was 5.7 ± 1.3 mmol/L and the “blood glucose, Day 1” value amounted to 5.8 ± 1.5 mmol/L. For the same molecule, in assay [1] (1/2 acre per group, Malathion co-applied in group C), the “Yield of good (edible) grapes” value was determined as 6300 kg. This molecule yielded a harvest dates earlier in assay [1] (groups C and D) of 10 days.
